Data from US11077090B2, “Compounds and compositions and uses thereof” (Sunovion Pharmaceuticals Inc., priority 2016, dated 2021).

System: compound-treated mice
Experiment: Neuropharmacological assay (SmartCube): behavioral activity signature and minimal effective dose
Assay type: in vivo
Details: for minimal effective dose: Mus musculus, ip, MED = dose having 50% or more total activity, read-out: Potency: minimal effective dose (MED); for AD: ADHD (probability of activity signature) / AG: analgesic (probability of activity signature) / CE: cognitive enhancer (probability of activity signature) / MS: mood stabilizer (probability of activity signature) / AX: anxiolytic (probability of activity signature) / DP: anti-depressant (probability of activity signature) / PS: anti-psychotic (probability of activity signature) / SD: sedative hypnotic (probability of activity signature) / UN: uncharacterized CNS activity (probability of activity signature): i.p. 15 min before test, most efficacious dose(s)
Procedure, shortened: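 Video-recorded behavior is compared algorithmically against a reference-compound database, yielding class probabilities (best dose reported). Compounds given i.p. in NMP/PEG/propylene glycol 15 min pre-test at 3 doses; potency as MED, the dose (mpk, range usually 0.3–30) reaching ≥50% total activity.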

Row | Structure (SMILES) | minimal effective dose | AD: ADHD (probability of activity signature) | AG: analgesic (probability of activity signature) | CE: cognitive enhancer (probability of activity signature) | MS: mood stabilizer (probability of activity signature) | AX: anxiolytic (probability of activity signature) (hydrochloride) | DP: anti-depressant (probability of activity signature) (hydrochloride) | PS: anti-psychotic (probability of activity signature) (hydrochloride) | SD: sedative hypnotic (probability of activity signature) (hydrochloride) | UN: uncharacterized CNS activity (probability of activity signature) (hydrochloride) | AX: anxiolytic (probability of activity signature) | DP: anti-depressant (probability of activity signature) | PS: anti-psychotic (probability of activity signature) | SD: sedative hypnotic (probability of activity signature) | UN: uncharacterized CNS activity (probability of activity signature)
1 | Cl.NC1COCc2ccc3c(c21)C1CCC3C1 (centres unmarked) [Example 51, 2,4,7,8,9,10-Hexahydro-1H-7,10-methanobenzo[f]isochromen-1-amine hydrochloride] | 3 to 10 mg/kg | + (LOQ ≤ + <5%) | ++ (5% ≤ ++ <25%) | ++ (5% ≤ ++ <25%) | + (LOQ ≤ + <5%) | ++ (5% ≤ ++ <25%) | ++ (5% ≤ ++ <25%) | ++ (5% ≤ ++ <25%) | + (LOQ ≤ + <5%) | ++++ (50% ≤ ++++) |  |  |  |  | 
2 | Cl.NC1COCc2ccc3c(c21)CCCO3 (centres unmarked) [Example 52, 1,2,4,8,9,10-Hexahydropyrano[4,3-f]chromen-1-amine hydrochloride] | 3 to 10 mg/kg | + (LOQ ≤ + <5%) | ++ (5% ≤ ++ <25%) | ++ (5% ≤ ++ <25%) | + (LOQ ≤ + <5%) |  |  |  |  |  | +++ (25% ≤ +++ <50%) | ++ (5% ≤ ++ <25%) | ++ (5% ≤ ++ <25%) | ++ (5% ≤ ++ <25%) | + (LOQ ≤ + <5%)
3 | CCc1cccc2c1C(N)COC2.Cl (centres unmarked) [Example 53, 5-Ethylisochroman-4-amine hydrochloride] | 3 to 10 mg/kg | + (LOQ ≤ + <5%) | ++ (5% ≤ ++ <25%) | ++ (5% ≤ ++ <25%) | + (LOQ ≤ + <5%) |  |  |  |  |  | ++ (5% ≤ ++ <25%) | ++ (5% ≤ ++ <25%) | ++ (5% ≤ ++ <25%) | ++ (5% ≤ ++ <25%) | ++++ (50% ≤ ++++)
4 | CNC1COCc2ccccc21.Cl (centres unmarked) [Example 54, N-Methylisochroman-4-amine hydrochloride] | 10 to 30 mg/kg | + (LOQ ≤ + <5%) | ++ (5% ≤ ++ <25%) | + (LOQ ≤ + <5%) | + (LOQ ≤ + <5%) |  |  |  |  |  | ++ (5% ≤ ++ <25%) | ++ (5% ≤ ++ <25%) | ++ (5% ≤ ++ <25%) | + (LOQ ≤ + <5%) | +++ (25% ≤ +++ <50%)
5 | Cc1ccc2c(c1C)C(NC(C)C)COC2.Cl (centres unmarked) [Example 55] | 3 to 10 mg/kg | + (LOQ ≤ + <5%) | ++ (5% ≤ ++ <25%) | ++ (5% ≤ ++ <25%) | + (LOQ ≤ + <5%) |  |  |  |  |  | ++ (5% ≤ ++ <25%) | + (LOQ ≤ + <5%) | ++ (5% ≤ ++ <25%) | + (LOQ ≤ + <5%) | +++ (25% ≤ +++ <50%)
6 | Cc1ccc2c(c1C)C(NCCO)COC2.Cl (centres unmarked) [Example 56] | 10 to 30 mg/kg | + (LOQ ≤ + <5%) | +++ (25% ≤ +++ <50%) | ++ (5% ≤ ++ <25%) | + (LOQ ≤ + <5%) |  |  |  |  |  | ++ (5% ≤ ++ <25%) | ++ (5% ≤ ++ <25%) | + (LOQ ≤ + <5%) | + (LOQ ≤ + <5%) | + (LOQ ≤ + <5%)
7 | CNC1COCc2ccc(C)c(C)c21.Cl (centres unmarked) [Example 57, N,5,6-Trimethylisochroman-4-amine hydrochloride] | 3 to 10 mg/kg | + (LOQ ≤ + <5%) | ++ (5% ≤ ++ <25%) | +++ (25% ≤ +++ <50%) | + (LOQ ≤ + <5%) |  |  |  |  |  | ++ (5% ≤ ++ <25%) | ++ (5% ≤ ++ <25%) | ++ (5% ≤ ++ <25%) | ++ (5% ≤ ++ <25%) | +++ (25% ≤ +++ <50%)
8 | CCNC1COCc2ccc(C)c(C)c21.Cl (centres unmarked) [Example 58] | 3 to 10 mg/kg | + (LOQ ≤ + <5%) | ++ (5% ≤ ++ <25%) | ++ (5% ≤ ++ <25%) | + (LOQ ≤ + <5%) |  |  |  |  |  | ++ (5% ≤ ++ <25%) | ++ (5% ≤ ++ <25%) | ++ (5% ≤ ++ <25%) | ++ (5% ≤ ++ <25%) | +++ (25% ≤ +++ <50%)
9 | CNC1CCOCc2ccc(C)cc21.Cl (centres unmarked) [Example 59] | 3 to 10 mg/kg | + (LOQ ≤ + <5%) | +++ (25% ≤ +++ <50%) | ++ (5% ≤ ++ <25%) | + (LOQ ≤ + <5%) |  |  |  |  |  | ++ (5% ≤ ++ <25%) | ++ (5% ≤ ++ <25%) | ++ (5% ≤ ++ <25%) | ++ (5% ≤ ++ <25%) | +++ (25% ≤ +++ <50%)
10 | CN(C)C1COCc2ccccc21.Cl (centres unmarked) [Example 60, N,N-dimethylisochroman-4-amine hydrochloride] | 10 to 30 mg/kg | + (LOQ ≤ + <5%) | ++ (5% ≤ ++ <25%) | ++ (5% ≤ ++ <25%) | + (LOQ ≤ + <5%) |  |  |  |  |  | +++ (25% ≤ +++ <50%) | ++ (5% ≤ ++ <25%) | ++ (5% ≤ ++ <25%) | + (LOQ ≤ + <5%) | + (LOQ ≤ + <5%)
11 | Cc1ccc2c(c1C)C(N(C)C)COC2.Cl (centres unmarked) [Example 61] | 10 to 30 mg/kg | + (LOQ ≤ + <5%) | ++ (5% ≤ ++ <25%) | ++ (5% ≤ ++ <25%) | + (LOQ ≤ + <5%) |  |  |  |  |  | ++ (5% ≤ ++ <25%) | + (LOQ ≤ + <5%) | ++ (5% ≤ ++ <25%) | + (LOQ ≤ + <5%) | ++++ (50% ≤ ++++)
